Measured values: PMC11359809, “Probing the molecular basis for signal transduction through the Zinc-Activated Channel (ZAC)” (Biochemical pharmacology, 2021)

Experiments:
[1] = biological target: T1, ZAC^H210A (Homo sapiens, UniProt Q401N2, A152T/H144A); test: TEVC in oocytes, His120 Ala mutant; assay type: cell-based; conditions: pH 4.0
T1 construct: expressed in transfected cells; host or cells: Xenopus oocytes injected with cRNA (pUNIV vector)
Description: (§1) The recordings were performed at room temperature.
(§2) Analysis of the data from the TEVC recordings were performed using Clampfit software version 10.5 (Molecular Devices, Crawley, UK) and GraphPad Prism version 7.0c (GraphPad Software, La Jolla, CA). Unless otherwise stated, the inward currents induced by agonists in oocytes were normalized to the maximal response elicited by a specific agonist (agonist Imax) on each oocyte. Concentration-response and concentration-inhibition curves were fitted in GraphPad Prism by nonlinear regression using the equation for sigmoidal dose-response with variable slope. Each data point represents the mean ± S.E.M. value of recordings performed on at least five oocytes in total from at least two different batches. […] The null hypothesis was rejected at P < 0.05, and the differences between the means were analyzed by Tukey’s multiple comparisons test.
(§3) The putative involvement of candidate residues in Clusters 1, 2, 3 and 4 in Zn^2+ binding to ZAC was investigated in by an elaborate alanine mutagenesis scanning. […] The determined IpH 4.0 value was used in part as a control and in part to enable the distinction of ZAC mutants non-responsive to Zn^2+ due to elimination of their ability to bind the metal ion from those where the mutation had eliminated cell surface expression and/or disrupted overall functionality of the receptor complex. […]

[2] = system: ZAC/hα1-Gly; test: TEVC in oocytes expressing ZAC/hα1-Gly chimera; assay type: cell-based, human
Description: as §1
(§4) Analysis of the data from the TEVC recordings were performed using Clampfit software version 10.5 (Molecular Devices, Crawley, UK) and GraphPad Prism version 7.0c (GraphPad Software, La Jolla, CA). Unless otherwise stated, the inward currents induced by agonists in oocytes were normalized to the maximal response elicited by a specific agonist (agonist Imax) on each oocyte. Concentration-response and concentration-inhibition curves were fitted in GraphPad Prism by nonlinear regression using the equation for sigmoidal dose-response with variable slope. Each data point represents the mean ± S.E.M. value of recordings performed on at least five oocytes in total from at least two different batches. For the data where statistical analysis was performed, a one-way ANOVA was used. The null hypothesis was rejected at P < 0.05, and the differences between the means were analyzed by Tukey’s multiple comparisons test.
(§5) Initially, we constructed four chimeric subunits fusing the ZAC ECD or TMD-ICD with the complementary domains from either the m5-HT3A or the hα1 GlyR subunit: ZAC/m5-HT3A, m5-HT3A/ZAC, ZAC/hα1-Gly and hα1-Gly/ZAC (Fig. 1A). […] (Fig. 1A).

[3] = system: ZAC/m5-HT3A; test: TEVC in oocytes expressing ZAC/m5-HT3A chimera; assay type: cell-based, mouse/human; conditions: pH 4.5; n = 5
Description: as §1, §4, §5

[4] = biological target: T2, ZAC^E136A/H139A/D143A/H144A (Homo sapiens, UniProt Q401N2, A152T/D167A/E160A/H163A/H168A); test: TEVC in oocytes, Cluster 2 quadruple mutant; assay type: cell-based; conditions: Zn^2+ 10 mM; H^+ pH 4.0; data not shown
T2 construct: expressed in transfected cells; host or cells: Xenopus oocytes injected with cRNA (pUNIV vector)
Description: as §1, §2, §3

[5] = biological target: T3, m5-HT3A/ZAC (Mus musculus / Homo sapiens, UniProt P23979); test: TEVC in oocytes expressing m5-HT3A/ZAC chimera; assay type: cell-based; conditions: pH 4.5; n = 4
T3 sequence (P23979 24-246): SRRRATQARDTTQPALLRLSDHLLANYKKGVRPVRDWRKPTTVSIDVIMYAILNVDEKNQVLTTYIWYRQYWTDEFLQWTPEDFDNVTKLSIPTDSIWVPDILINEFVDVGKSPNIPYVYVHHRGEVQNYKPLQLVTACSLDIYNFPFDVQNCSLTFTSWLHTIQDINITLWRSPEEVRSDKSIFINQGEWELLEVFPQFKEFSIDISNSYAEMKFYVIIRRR
T3 sequence (Q401N2 231-412 partner): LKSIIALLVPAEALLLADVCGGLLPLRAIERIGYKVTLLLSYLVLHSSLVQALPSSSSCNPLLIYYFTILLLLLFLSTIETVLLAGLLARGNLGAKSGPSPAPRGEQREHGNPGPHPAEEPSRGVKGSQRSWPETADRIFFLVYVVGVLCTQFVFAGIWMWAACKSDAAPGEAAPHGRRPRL
Text: (§6) The construction of the ZAC-pUNIV plasmid (encoding for the human WT ZAC that contains a Thr in position 128) has been described previously. The m5-HT3A and hα1 GlyR cDNAs were subcloned from their original vectors into pUNIV (Addgene, Watertown, MA) using NheI and EcoRI as restriction enzymes. […] The C-terminus modifications in these four chimeras were introduced in their cDNAs in the same way. Point mutations were introduced in cDNAs by use of the QuikChange mutagenesis kit (Stratagene, San Diego, CA). The validity and absence of unwanted mutations in the constructed cDNAs was verified by DNA sequencing (Macrogen Europe, Amsterdam, The Netherlands).
(§7) All cDNAs used for cRNA synthesis were inserted in the pUNIV vector. The cDNAs were linearized and subsequently transcribed and capped using the mMessage mMachine T7 RNA transcription kit (Ambion, Waltham, MA). […] Oocytes were incubated in a sterile modified Barth’s solution [88 mM NaCl, 1 mM KCl, 15 mM HEPES (pH 7.5), 2.4 mM NaHCO3, 0.41 mM CaCl2, 0.82 mM MgSO4, 0.3 mM Ca(NO3)2, 100 U/ml penicillin and 100 μg/ml streptomycin] at 16–18 °C. Based on experience gained with WT ZAC in a recent study, all TEVC recordings were performed two days after cRNA injection.
(§8) On the day of the TEVC recording, all compound dilutions were prepared in a saline solution [115 mM NaCl, 2.5 mM KCl, 10 mM MOPS (pH 7.5), 1.8 mM CaCl2, 0.1 mM MgCl2], and pH was adjusted to 7.5 (if needed). Oocytes were placed in a recording chamber continuously perfused with this saline solution, and the compounds were applied in the perfusate. Both voltage and current electrodes were agar-plugged with 3 M KCl with a resistance of 0.2–2.0 MΩ. Oocytes were voltage-clamped at −50 mV (except in the studies of the chimeras and their parent receptors where they were clamped at −60 mV, section 3.1), by a Gene Clamp 500B amplifier, and current signals were digitized by a Digidata 1322A (both from Axon Instruments, Union City, CA). Currents were recorded using pCLAMP 10 (Molecular Devices, Sunnyvale, CA). The recordings were performed at room temperature.
(§9) In all recordings, compounds or compound combinations were applied in the bath until the peak current decayed to a steady state (up to 30 s). […] The antagonist properties of compounds were determined by pre-application of the compound to the perfusate for 30 s followed by co-application of the compound and the agonist. In all recordings, washes of 1–5 min were executed between the ligand applications, the length of the washes depending on the agonist concentrations used and on the return to baseline current amplitude.
as §4

[6] = biological target: T4, ZAC^D116A/DH8A/H210A (Homo sapiens, UniProt Q401N2, A152T/D140A/D142A/H144A); test: TEVC in oocytes, Cluster 1 triple mutant; assay type: cell-based; conditions: pH 4.0
T4 construct: expressed in transfected cells; host or cells: Xenopus oocytes injected with cRNA (pUNIV vector)
Description: as §1, §2, §3

[7] = biological target: T5, ZAC^E24A/E89A/D105A/D108A/E130A (Homo sapiens, UniProt Q401N2, A152T/D129A/D132A/E113A/E154A/E48A); test: TEVC in oocytes, Cluster 3 quintuple mutant; assay type: cell-based; conditions: H^+ pH 4.0; Zn^2+ 10 mM; data not shown
T5 construct: expressed in transfected cells; host or cells: Xenopus oocytes injected with cRNA (pUNIV vector)
Description: as §1, §2, §3

[8] = system: hα1-Gly/ZAC; test: TEVC in oocytes expressing hα1-Gly/ZAC chimera; assay type: cell-based, human; conditions: pH 4.5; n = 5
Description: as §1, §4, §5

[9] = system: ZAC/m5-HT3A-II; test: TEVC in oocytes expressing ZAC/m5-HT3A-II chimera; assay type: cell-based, mouse/human; conditions: Zn^2+ 10 mM; H^+ pH 4.0; data not shown
Description: as §1

[10] = biological target: T6, WT hα1 GlyR (Homo sapiens, UniProt P23415); assay type: cell-based
T6 construct: expressed in transfected cells; host or cells: Xenopus oocytes injected with cRNA (pUNIV vector)
T6 sequence (P23415 29-457): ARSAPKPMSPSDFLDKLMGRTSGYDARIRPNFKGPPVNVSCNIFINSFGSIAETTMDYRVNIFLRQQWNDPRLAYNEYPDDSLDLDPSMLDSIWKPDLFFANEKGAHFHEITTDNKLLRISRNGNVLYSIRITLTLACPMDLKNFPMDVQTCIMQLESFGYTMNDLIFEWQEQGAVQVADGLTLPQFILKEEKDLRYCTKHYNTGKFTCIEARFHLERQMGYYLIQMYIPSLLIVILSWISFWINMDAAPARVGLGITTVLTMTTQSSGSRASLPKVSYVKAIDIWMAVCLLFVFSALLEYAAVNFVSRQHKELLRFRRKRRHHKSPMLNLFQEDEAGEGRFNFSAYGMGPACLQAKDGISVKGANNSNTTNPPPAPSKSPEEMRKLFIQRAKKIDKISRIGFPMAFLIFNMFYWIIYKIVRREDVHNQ
Text: as §6, §7, §8, §9, §2

[11] = biological target: T7, WT ZAC (Homo sapiens, UniProt Q401N2, A152T); test: TEVC in Xenopus oocytes expressing WT ZAC; assay type: cell-based; conditions: PTX at concentrations up to 100 μM; Zn^2+ 1 mM
T7 construct: expressed in transfected cells; host or cells: Xenopus oocytes injected with cRNA (pUNIV vector)
T7 sequence (Q401N2 26-412 A152T): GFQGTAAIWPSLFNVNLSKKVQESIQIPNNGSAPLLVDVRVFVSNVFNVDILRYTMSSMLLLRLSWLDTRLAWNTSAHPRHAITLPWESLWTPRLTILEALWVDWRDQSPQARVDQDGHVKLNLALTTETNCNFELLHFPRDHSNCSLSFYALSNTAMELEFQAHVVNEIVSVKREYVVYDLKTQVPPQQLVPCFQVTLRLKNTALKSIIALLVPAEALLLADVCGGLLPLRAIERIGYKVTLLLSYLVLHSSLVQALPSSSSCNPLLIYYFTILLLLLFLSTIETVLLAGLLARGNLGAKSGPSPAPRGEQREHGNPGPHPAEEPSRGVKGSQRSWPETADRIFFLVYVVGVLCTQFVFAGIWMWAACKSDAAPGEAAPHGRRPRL
Description: as §1, §4

T4 sequence (Q401N2 26-412 D140A/D142A/H144A/A152T): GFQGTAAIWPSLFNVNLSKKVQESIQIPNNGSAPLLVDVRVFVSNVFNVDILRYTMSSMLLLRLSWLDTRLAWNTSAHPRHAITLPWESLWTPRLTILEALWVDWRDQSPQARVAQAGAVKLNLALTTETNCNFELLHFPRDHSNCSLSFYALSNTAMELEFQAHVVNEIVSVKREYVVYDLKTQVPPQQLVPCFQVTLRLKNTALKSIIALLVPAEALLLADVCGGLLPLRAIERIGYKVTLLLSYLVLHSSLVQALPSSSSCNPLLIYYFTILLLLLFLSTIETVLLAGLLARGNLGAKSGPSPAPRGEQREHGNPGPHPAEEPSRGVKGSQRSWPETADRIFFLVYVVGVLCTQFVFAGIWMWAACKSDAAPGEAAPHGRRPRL
T5 sequence (Q401N2 26-412 E48A/E113A/D129A/D132A/A152T/E154A): as the sequence (Q401N2 26-412 D140A/D142A/H144A/A152T) above, with E23A, E88A, D104A, D107A, A115D, A117D, A119H, E129A counted along it
T1 sequence (Q401N2 26-412 H144A/A152T): as the sequence (Q401N2 26-412 D140A/D142A/H144A/A152T) above, with A115D, A117D counted along it
T2 sequence (Q401N2 26-412 A152T/E160A/H163A/D167A/H168A): as the sequence (Q401N2 26-412 D140A/D142A/H144A/A152T) above, with A115D, A117D, A119H, E135A, H138A, D142A, H143A counted along it

| Molecule | IpH 4.0 [1] | agonist-evoked current ([2]; pH 4.5) | IpH 4.5 ± S.E.M. [3] [μA] | agonist responsiveness [4] | IpH 4.5 ± S.E.M. [5] [μA] | IpH 4.0 range [6] | agonist responsiveness [7] | IpH 4.5 ± S.E.M. [8] [μA] | agonist-evoked current [9] | current during 30-s preincubation of antagonist ([2]; PTX preincubation) | IC50 ([2]; inhibition of Zn^2+ EC90 (10 μM)-induced currents, read-out: estimated IC50) [nM] | current during 30-s preincubation of antagonist ([10]; PTX preincubation) | IC50 ([10]; inhibition of Gly EC90 (100 μM)-elicited responses, read-out: estimated IC50) [nM] | inhibition of Zn^2+ EC90-mediated signalling [11] |
| --- | --- | --- | --- | --- | --- | --- | --- | --- | --- | --- | --- | --- | --- | --- |
| [H+] [H^+] | 30–110 nA | robust currents | −0.0033 ± 0.0003 | non-responsive | −0.0027 ± 0.0007 | 40–100 nA | non-responsive | −0.0045 ± 0.0019 | did not evoke significant currents |  |  |  |  |  |
| picrotoxin [PTX] |  |  |  |  |  |  |  |  |  | substantial outward currents | > 1000 | no such outward currents | < 1000 | did not inhibit |
